According to US6964975B2, “Isoxazole and thiazole compounds and use thereof as medicine” (Kirin Beer Kabushiki Kaisha, priority 2000, dated 2005):

Key:
Human EDG-2/HepG2 cells = test: Inhibitory activity on LPA-accelerated [3H] thymidine incorporation (cell proliferation); assay type: cell-based; conditions: 50% inhibition of LPA-induced increase of [3H] thymidine incorporation
Description: The human EDG-2 expression plasmid was introduced into HepG2 cells by electroporation. After the introduction, culturing was continued while exchanging selective media every 3 to 4 days, thereby obtaining an expressed colony. Regarding these cells, Ca-influx and cell-proliferation by LPA, level of [^3H] LPA binding and the like were inspected to select a cell line which highly expresses human EDG-2 (human EDG-2/HepG2).
Human EDG-2/HepG2 cells suspended in 10% bovine serum-containing DMEM (Dulbecco's modified eagle medium) were plated on a 96-well plate and, on the next day, the medium was exchanged with serum-free DMEM. 24 hours later, the medium was exchanged with DMEM containing LPA or DMEM containing no LPA, cells were cultured for further 16 hours, and [^3H] thymidine was then added. After culturing for 8 hours subsequent to the addition of [^3H] thymidine, cells were washed with PBS (phosphate-buffered saline), and the amount of [^3H] thymidine incorporated into the cells were assayed by Betaplate filter counter system (Amersham Pharmacia Biotech). The difference between the amount of [^3H] thymidine incorporated in the LPA-added well and the amount of [^3H] thymidine incorporated in the well containing no LPA represents the amount of [^3H] thymidine incorporation accelerated by LPA. […] The test compounds were added immediately before the LPA addition.

human EDG-2 = target: T1, human EDG-2 (Homo sapiens, UniProt Q92633); test: Inhibitory activity on LPA-induced elevation of intracellular Ca2+ level; assay type: cell-based; conditions: 50% inhibition of elevation of intracellular Ca2+ level by LPA, human EDG-2/HepG2 cells, fura-2
T1 construct: cDNA of the cloned human EDG-2 was introduced into pEFneo, which is an animal expression vector; expressed in transfected cells; host or cells: HepG2
Outline: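 Stably transfected HepG2 cells loaded with fura-2/AM (45 min, room temperature) in 0.1% BSA HEPES buffer. Test compound added before LPA, and the LPA-evoked intracellular Ca2+ rise measured fluorometrically. IC50 for inhibition derived.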

[1] = system: ovarian carcinoma cells (SKOV3); test: Inhibitory activity against BrdU incorporation, LPA-stimulated ovarian carcinoma cells; assay type: cell-based, human; conditions: SKOV3, LPA 3 μM, FIG. 2B
Procedure: (§1) Human brain tumor cells (U87 MG) and ovarian carcinoma cells (SKOV3) suspended in serum-free DMEM were plated on a 96-well plate. 24 hours later, Compound 115 and LPA (3 μM) were added and the mixture was cultured for 16 hours, followed by the BrdU addition. Culture was continued for 3 hours from the addition of BrdU. Thereafter, the incorporation of BrdU into the cells was assayed based on the absorbance at 450 nm using the Cell proliferation ELISA system (RPN250, Amersham LIFE SCIENCE).

[2] = system: Human brain tumor cells (U87 MG); test: Inhibitory activity against BrdU incorporation, LPA-stimulated brain tumor cells; assay type: cell-based; conditions: LPA 3 μM, FIG. 2A
Procedure: as §1

[3] = system: lactic acid induced peripheral circulatory disturbance in rats; test: Rat model of lactic acid induced peripheral circulatory disturbance (lesion score); assay type: in vivo; conditions: for Score of lesion: mean ± S.E.
Description: Peripheral arterial obstructions including clinical arteriosclerosis obliterans (ASO) are, in common, chronic diseases, which often cause ulcer or necrosis in lower limbs, and lesions are worsened by arterial thrombotic infarcts upstream of the lesions. Therefore, the target of the treatment for the above diseases is to inhibit the progress and to eliminate the ischemic symptoms. Antiplatelet drugs and anticoagulants are often used therefor. […] ID3016511 (Compound 115), which is one of the compounds according to the present invention, is selected as an example and administered daily to a rat model of lactic acid induced peripheral circulatory disturbance used as an animal model of peripheral arterial obstruction to examine the drug's therapeutic effect.
13-week old Wister male rats were used in test groups of 10 rats. Each rat was fixed in a face-up position under anesthesia by 40 mg/kg of intraperitoneally administered pentobarbital sodium. The left femoral region was then incised and 0.1 ml of 5% lactic acid solution was administered into the femoral artery. Adhesives were applied dropwise at the lactic acid administered site for blood stanching. Thereafter, a penicillin G solution was added dropwise to prevent infections and the incised part was sutured. […] The solvent and the test solution were orally administered. Administration was carried out 2 hours before lactic acid administration and, thereafter, twice a day at an interval of at least 7 hours for 13 days repeatedly. […] The positive control material was administered 3 hours before the lactic acid administration, and it was repeatedly orally administered twice a day for 13 days in the same way as the above test compound. The progress of lesion on legs and feet was observed 3, 7, and 14 days after the lactic acid administration and the results were scored from 0 to 4 based on the following criteria:
1: nigrities limited to the tiptoe
2: nigrities reaching toe
Each toe was scored and the sum of scores for each toe was determined as a lesion index. When the damage reached the sole, 5 points were added.
The significant difference between the control group and the test material group was assayed by the non-parametric Dunnet's test. The significant difference between the control group and the positive control material group was assayed by the non-parametric Wilcoxon's test.

[4] = Solubility in water (remark); assay type: physicochemical; conditions: white powder

T1 sequence (Q92633 whole entry): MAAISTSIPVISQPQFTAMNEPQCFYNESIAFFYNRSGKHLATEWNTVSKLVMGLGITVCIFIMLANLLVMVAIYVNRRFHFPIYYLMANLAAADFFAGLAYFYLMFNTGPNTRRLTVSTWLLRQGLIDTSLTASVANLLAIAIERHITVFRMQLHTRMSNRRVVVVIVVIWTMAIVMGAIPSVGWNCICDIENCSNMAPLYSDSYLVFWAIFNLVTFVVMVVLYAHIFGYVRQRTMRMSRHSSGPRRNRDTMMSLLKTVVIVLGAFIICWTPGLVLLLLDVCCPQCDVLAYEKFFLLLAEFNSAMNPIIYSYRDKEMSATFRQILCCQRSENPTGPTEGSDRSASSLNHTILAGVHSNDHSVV

Row | SMILES | IC50 (Human EDG-2/HepG2 cells) [nM] | IC50 (human EDG-2) [µM] | further results
1 | CCc1noc(-c2ccc(CSCCC(=O)OC)cc2)c1NC(=O)OC(c1ccccc1)C(F)(F)F (centres unmarked) [Compound 166, Methyl 3-{[4-(3-ethyl-4-{[(2,2,2-trifluoro-1-phenylethoxy)carbonyl]amino}-5-isoxazolyl)-benzyl]sulfanyl}propanoate] | 100 | 10 | 
2 | CCc1noc(-c2ccc(CSCCC(=O)OC)cc2)c1NC(=O)OC(C)c1ccccc1F (centres unmarked) [Compound 165, Methyl 3-({4-[3-ethyl-4-({[1-(2-fluorophenyl)ethoxy]carbonyl}amino)-5-isoxazolyl]-benzyl}sulfanyl)propanoate] | 100 to 300 | 3 to 10 | 
3 | Cc1ccsc1-c1onc(C)c1NC(=O)OC(C)c1ccccc1Cl (centres unmarked) [Compound 67, 1-(2-Chlorophenyl)ethyl N-[3-methyl-5-(3-methyl-2-thienyl)-4-isoxazolyl]carbamate] | 1000 | 3 | 
4 | Cc1noc(-c2ccc(CSCC(=O)NCc3ccco3)cc2)c1NC(=O)OC(C)c1ccccc1Cl (centres unmarked) [Compound 139, 1-(2-Chlorophenyl)ethyl N-(5-{4-[({2-[(2-furylmethyl)amino]-2-oxoethyl}sulfanyl)-methyl]phenyl)-3-methyl-4-isoxazolyl)carbamate] | 30 to 100 | 10 | 
5 | Cc1noc(-c2ccc(CSCCCS(=O)(=O)O)cc2)c1NC(=O)OC(C)c1ccccc1Cl (centres unmarked) [Compound 152, 3-({4-[4-({[1-(2-Chlorophenyl)ethoxy]carbonyl}amino)-3-methyl-5-isoxazolyl]benzyl}-sulfanyl)-1-propanesulfonic acid] | 300 | 3 to 10 | 
6 | CCc1noc(-c2ccc(CSCCC(=O)O)cc2)c1NC(=O)OC(C)c1ccccc1Cl (centres unmarked) [Compound 147, 3-({4-[4-({[1-(2-Chlorophenyl)ethoxy]carbonyl}amino)-3-ethyl-5-isoxazolyl]benzyl}-sulfanyl)propanoic acid] | 30 to 100 | 3 to 10 | 
7 | Cc1noc(-c2ccc(CSCCC(=O)O)cc2)c1NC(=O)OC(C)c1ccccc1F (centres unmarked) [Compound 157, 3-({4-[4-({[1-(2-Fluorophenyl)ethoxy]carbonyl}amino)-3-methyl-5-isoxazolyl]benzyl}-sulfanyl)propanoic acid] | 300 to 1000 | 3 | 
8 | CNC(=O)CSCc1ccc(-c2onc(C)c2NC(=O)OC(C)c2ccccc2Cl)cc1 (centres unmarked) [Compound 138] | 100 to 300 | 3 to 10 | 
9 | Cc1noc(-c2cccc(CSCCC(=O)O)c2)c1NC(=O)OC(C)c1ccccc1Cl (centres unmarked) [Compound 159, 3-({3-[4-({[1-(2-Chlorophenyl)ethoxy]carbonyl}amino)-3-methyl-5-isoxazolyl]benzyl}-sulfanyl)propanoic acid] | 300 | 3 | 
10 | CCCCSCc1ccc(-c2onc(C)c2NC(=O)OC(C)c2ccccc2Cl)cc1 (centres unmarked) [Compound 125, 1-(2-Chlorophenyl)ethyl N-(5-{4-[(butylsulfanyl)methyl]phenyl)-3-methyl-4-isoxazolyl)-carbamate] | 100 to 300 | 10 to 30 | 
11 | CCc1noc(-c2ccc(CSCCC(=O)O)cc2)c1NC(=O)OC(C)c1ccccc1F (centres unmarked) [Compound 167, 3-({4-[3-Ethyl-4-({[1-(2-fluorophenyl)ethoxy]carbonyl}amino)-5-isoxazolyl]benzyl}-sulfanyl)propanoic acid] | 30 to 100 | 3 to 10 | 
12 | Cc1noc(-c2ccc(CNCCF)cc2)c1NC(=O)OC(C)c1ccccc1Cl (centres unmarked) [Compound 112, 1-(2-Chlorophenyl)ethyl N-[5-(4-{[(2-fluoroethyl)amino]methyl}phenyl)-3-methyl-4-isoxazolyl]carbamate] | 300 to 1000 | 10 to 30 | 
13 | Cc1noc(-c2ccc(CNCC3CCCO3)cc2)c1NC(=O)OC(C)c1ccccc1Cl (centres unmarked) [Compound 104, 1-(2-Chlorophenyl)ethyl N-[3-methyl-5-(4-{[(tetrahydro-2-furanylmethyl)amino]-methyl}phenyl)-4-isoxazolyl]carbamate] | 3000 | 10 to 30 | 
14 | Cc1noc(-c2ccc(CNCc3ccco3)cc2)c1NC(=O)OC(C)c1ccccc1Cl (centres unmarked) [Compound 106, 1-(2-Chlorophenyl)ethyl N-[5-(4-{[(2-furylmethyl)amino]methyl}phenyl)-3-methyl-4-isoxazolyl]carbamate] | 1000 to 3000 | 3 to 10 | 
15 | C=CCSCc1ccc(-c2onc(C)c2NC(=O)OC(C)c2ccccc2Cl)cc1 (centres unmarked) [Compound 123, 1-(2-Chlorophenyl)ethyl N-(5-{4-[(allylsulfanyl)methyl]phenyl}-3-methyl-4-isoxazolyl)-carbamate] | 100 to 300 | 3 to 10 | 
16 | COC(=O)CS(=O)(=O)Cc1ccc(-c2onc(C)c2NC(=O)OC(C)c2ccccc2Cl)cc1 (centres unmarked) [Compound 133] | 100 to 300 | 10 | 
17 | CCSCc1ccc(-c2onc(C)c2NC(=O)OC(C)c2ccccc2Cl)cc1 (centres unmarked) [Compound 108, 1-(2-Chlorophenyl)ethyl N-(5-{4-[(ethylsulfanyl)methyl]phenyl}-3-methyl-4-isoxazolyl)carbamate] | 100 to 300 | 3 to 10 | 
18 | COC(=O)CSCc1ccc(-c2onc(C)c2NC(=O)OC(C)c2ccccc2Cl)cc1 (centres unmarked) [Compound 118, Methyl 2-({4-[4-({[1-(2-chlorophenyl)ethoxy]carbonyl}-amino)-3-methyl-5-isoxazolyl]-benzyl}-sulfanyl)acetate] | 100 to 300 | 1 to 3 | 
19 | COC(=O)CCSCc1ccc(-c2onc(C)c2NC(=O)OC(C)c2ccccc2Cl)cc1 (centres unmarked) [Compound 115, Methyl 3-({4-[4-({[1-(2-chlorophenyl)ethoxy]carbonyl}amino)-3-methyl-5-isoxazolyl]-benzyl}sulfanyl)propanoate] | 10 to 30 | 1 to 3 | Concentration at which proliferation (BrdU incorporation) was inhibited in a concentration dependent manner [1]: ≥ 0.3 µM; Concentration at which proliferation (BrdU incorporation) was inhibited in a concentration dependent manner [2]: ≥ 0.3 µM; Score of lesion ([3]; 20 mg/kg twice/day p.o., 3 days after lactic acid injection): 2.6 ± 0.8; Score of lesion ([3]; 20 mg/kg twice/day p.o., 7 days after lactic acid injection): 4.3 ± 1.0; Score of lesion ([3]; 20 mg/kg twice/day p.o., 14 days after lactic acid injection): 6.9 ± 1.4; Score of lesion ([3]; 60 mg/kg twice/day p.o., 7 days after lactic acid injection): 1.9 ± 0.5; Progress of lesions in the feet and legs ([3]; dose of 60 mg/kg): inhibited the progress of lesions; Progress of lesion versus control group ([3]; repeated administration of 20 mg/kg for 14 days): equivalent level of progress with the control group; Solubility in water [4]: poor solubility in water
